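Interpolation was linear, between the two tested concentrations surrounding the appropriate level; five concentrations were tested over 48 hours in 96-well plates. GI50 is the concentration that inhibits growth by half. TGI denotes the concentration required for complete inhibition of growth.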

Some test systems named below: CAKI-1 renal; EKVX NSCLC; HCC-2998 colon; HCT-116 colon; NCI/ADR-RES ovarian; OVCAR-5 ovarian; SF-539 CNS; SK-MEL-2 melanoma; SNB-19 CNS; T-47D breast.
Holding throughout (assay): NCI-60 cell line screen, 48 h

As for `COc1cc(/C=C\c2cc(OC)c(OC)c(OC)c2)cc(NC(=O)/C=C/c2cc(OC)c(OC)c(OC)c2)c1OC`, the GI50 in the test with CAKI-1 renal is 2.8 µM; in the test on EKVX NSCLC, 15.7 µM; in the test with HCC-2998 colon, above 100 µM; in the test with HCT-116 colon, 4.57 µM; in the test with NCI/ADR-RES ovarian, 2.77 µM; with OVCAR-5 ovarian, above 100 µM. Also, the GI50 in the test on SF-539 CNS was 7.58 µM; with SK-MEL-2 melanoma it was 2.69 µM; with SNB-19 CNS, 48.6 µM; in the test with T-47D breast, 3.11 µM. For the same compound, the TGI in the test on CAKI-1 renal, in the test on EKVX NSCLC, in the test with HCC-2998 colon, with HCT-116 colon, in the test on NCI/ADR-RES ovarian and with OVCAR-5 ovarian was above 100 µM each time. Moreover, the TGI with SF-539 CNS is above 100 µM; in the test with SK-MEL-2 melanoma, 9.77 µM; in the test on SNB-19 CNS it was above 100 µM; with T-47D breast it was above 100 µM.

For the compound `O=c1[nH]c(=O)c2cn[nH]c2[nH]1`, the GI50 in the test on CAKI-1 renal, with EKVX NSCLC, in the test on HCC-2998 colon, in the test on HCT-116 colon, in the test on NCI/ADR-RES ovarian and in the test with OVCAR-5 ovarian was above 100 µM throughout. Besides, the GI50 in the test with SF-539 CNS, with SK-MEL-2 melanoma, in the test on SNB-19 CNS and in the test with T-47D breast was above 100 µM throughout. For the same compound, the TGI with CAKI-1 renal, in the test with EKVX NSCLC, in the test on HCC-2998 colon, in the test on HCT-116 colon, in the test with NCI/ADR-RES ovarian and in the test with OVCAR-5 ovarian was above 100 µM throughout. In addition, the TGI in the test with SF-539 CNS, in the test on SK-MEL-2 melanoma, with SNB-19 CNS and in the test with T-47D breast was above 100 µM in each case.

In the case of `C=C(C)[C@@H]1CC[C@]2(C)CC[C@]3(C)[C@H](CC[C@@H]4[C@@]5(C)CC[C@H](O)C(C)(C)[C@@H]5CC[C@]43C)[C@@H]12`, the TGI in the test on CAKI-1 renal, in the test on EKVX NSCLC, in the test on HCC-2998 colon, in the test with HCT-116 colon, with NCI/ADR-RES ovarian and in the test on OVCAR-5 ovarian was above 100 µM throughout. Also, the TGI in the test on SF-539 CNS was above 100 µM; in the test with SK-MEL-2 melanoma it was above 100 µM; in the test with SNB-19 CNS, above 62.8 µM; in the test with T-47D breast it was above 100 µM.

On to `COC(=O)C1CC23CCCN4CCC5(c6ccccc6N(C=O)C15CC2)C43` (stereo not given), for which the TGI with CAKI-1 renal, in the test on EKVX NSCLC, in the test on HCC-2998 colon, with HCT-116 colon, with NCI/ADR-RES ovarian and in the test on OVCAR-5 ovarian was above 100 µM throughout. The TGI with SF-539 CNS, in the test with SK-MEL-2 melanoma, in the test on SNB-19 CNS and in the test on T-47D breast was above 100 µM in each case.

Regarding `C=C1C(=O)O[C@H]2[C@H]1CC/C(COC(=O)CSCSCC(=O)OC/C1=C/CC[C@@]3(C)O[C@H]3[C@H]3OC(=O)C(=C)[C@@H]3CC1)=C\CC[C@@]1(C)O[C@@H]21`, the GI50 with CAKI-1 renal was 1.74 µM; in the test with EKVX NSCLC, 1.6 µM; in the test on HCC-2998 colon, 1.8 µM; with HCT-116 colon, 0.59 µM; in the test on NCI/ADR-RES ovarian, 3.25 µM; in the test with OVCAR-5 ovarian, 1.95 µM. For the same compound, the GI50 in the test with SF-539 CNS was 1.47 µM; in the test on SK-MEL-2 melanoma it was 2.29 µM; with SNB-19 CNS it was 2.44 µM; in the test on T-47D breast, 1.53 µM. Also, the TGI amounted to 3.32 µM in the test on CAKI-1 renal; 3.38 µM with EKVX NSCLC; 3.46 µM in the test with HCC-2998 colon; 1.93 µM with HCT-116 colon; 12.3 µM with NCI/ADR-RES ovarian; 3.92 µM in the test with OVCAR-5 ovarian. Besides, the TGI was 2.89 µM with SF-539 CNS, 5.24 µM in the test with SK-MEL-2 melanoma, 5.99 µM in the test with SNB-19 CNS and 3.7 µM in the test on T-47D breast.

Take `N=C1C(c2nc3ccccc3s2)=C(O)CN1c1ccc(F)c(Cl)c1`: the GI50 is 14.8 µM in the test on CAKI-1 renal; 48.5 µM in the test with EKVX NSCLC; 61.7 µM in the test on HCC-2998 colon; 24.2 µM in the test with HCT-116 colon; 26.9 µM in the test on NCI/ADR-RES ovarian; 35.9 µM in the test on OVCAR-5 ovarian. The GI50 in the test on SF-539 CNS was 8.36 µM; in the test with SK-MEL-2 melanoma, 39 µM; in the test on SNB-19 CNS it was 21.5 µM; in the test on T-47D breast it was 72.5 µM. The TGI in the test on CAKI-1 renal was 98.1 µM; with EKVX NSCLC, above 100 µM; in the test on HCC-2998 colon, above 100 µM; with HCT-116 colon, above 100 µM; with NCI/ADR-RES ovarian, 80.6 µM; with OVCAR-5 ovarian, above 100 µM. Also, the TGI is 30.9 µM with SF-539 CNS, above 100 µM with SK-MEL-2 melanoma, 85.7 µM in the test with SNB-19 CNS and above 100 µM in the test with T-47D breast.

Consider `CCCCON(OC(=O)c1ccc2ccccc2c1)C(=O)c1ccccc1`, for which the GI50 in the test on CAKI-1 renal was above 100 µM; in the test with EKVX NSCLC, above 100 µM; in the test with HCC-2998 colon, above 100 µM; in the test with HCT-116 colon, 34.8 µM; in the test with NCI/ADR-RES ovarian, above 100 µM; in the test with OVCAR-5 ovarian, above 100 µM. Besides, the GI50 with SF-539 CNS, with SK-MEL-2 melanoma, with SNB-19 CNS and in the test with T-47D breast was above 100 µM each time. For the same compound, the TGI in the test on CAKI-1 renal, in the test with EKVX NSCLC, in the test with HCC-2998 colon, in the test on HCT-116 colon, in the test on NCI/ADR-RES ovarian and in the test with OVCAR-5 ovarian was above 100 µM throughout. Further, the TGI in the test with SF-539 CNS, in the test on SK-MEL-2 melanoma, with SNB-19 CNS and in the test with T-47D breast was above 100 µM each time.

Consider `CNC(=O)Nc1nc2ccc([N+](=O)[O-])cc2[nH]1`, for which the TGI in the test on CAKI-1 renal, in the test on EKVX NSCLC, with HCC-2998 colon, with HCT-116 colon, in the test with NCI/ADR-RES ovarian and in the test on OVCAR-5 ovarian was above 100 µM throughout. Moreover, the TGI in the test on SF-539 CNS, with SK-MEL-2 melanoma, in the test with SNB-19 CNS and in the test with T-47D breast was above 100 µM in each case.

Regarding `Oc1c(-c2nnc(-c3ccccc3Cl)o2)sc2nnc(-c3ccccc3)c(-c3ccccc3)c12`, the GI50 with CAKI-1 renal is 0.501 µM; in the test on EKVX NSCLC, 3.1 µM; in the test with HCC-2998 colon, 5.05 µM; in the test with HCT-116 colon it was 2.92 µM; in the test with NCI/ADR-RES ovarian it was 1.09 µM; with OVCAR-5 ovarian it was 7.48 µM. Moreover, the GI50 in the test with SF-539 CNS was 4.45 µM; in the test with SK-MEL-2 melanoma, 3.23 µM; in the test on SNB-19 CNS it was 4.37 µM; in the test on T-47D breast it was 4.78 µM. In addition, the TGI in the test with CAKI-1 renal was 24.6 µM; with EKVX NSCLC it was 32.2 µM; in the test on HCC-2998 colon, above 100 µM; in the test on HCT-116 colon, 11.4 µM; in the test on NCI/ADR-RES ovarian, above 100 µM; with OVCAR-5 ovarian, above 100 µM. Besides, the TGI with SF-539 CNS is 70.4 µM; with SK-MEL-2 melanoma, 15.7 µM; with SNB-19 CNS, above 100 µM; in the test on T-47D breast, above 100 µM.

On to `O=C(c1ccccc1)c1ccccc1-c1ccccc1`, for which the GI50 was 1.52 µM in the test on CAKI-1 renal; 4.22 µM with EKVX NSCLC; 6.14 µM in the test on HCC-2998 colon; 3.17 µM in the test with HCT-116 colon; 1 µM in the test on NCI/ADR-RES ovarian; 14.6 µM in the test with OVCAR-5 ovarian. Further, the GI50 in the test with SF-539 CNS was 3.06 µM; with SK-MEL-2 melanoma, 1.65 µM; in the test on SNB-19 CNS, 5.45 µM; with T-47D breast, 6.08 µM. Moreover, the TGI with CAKI-1 renal was 7.85 µM; in the test with EKVX NSCLC, above 100 µM; in the test with HCC-2998 colon, 34.5 µM; in the test on HCT-116 colon it was 30.1 µM; with NCI/ADR-RES ovarian, 8.02 µM; in the test with OVCAR-5 ovarian it was above 100 µM. Besides, the TGI in the test on SF-539 CNS was 15.3 µM; in the test on SK-MEL-2 melanoma it was 9.48 µM; in the test on SNB-19 CNS, above 100 µM; with T-47D breast it was above 100 µM.

Consider `COC12C=C/C(=C(/C(=O)OCc3cncnc3)C(=O)CCCCCCCCC3(OC)C=C/C(=C(/C(=O)OCc4cncnc4)C(=O)CCCCCCCC1)O3)O2`, for which the GI50 with CAKI-1 renal is 0.667 µM; in the test with EKVX NSCLC, 0.717 µM; in the test with HCC-2998 colon it was 0.821 µM; in the test on HCT-116 colon it was 0.146 µM; in the test with NCI/ADR-RES ovarian, 0.609 µM; in the test on OVCAR-5 ovarian it was 0.783 µM. Moreover, the GI50 in the test on SF-539 CNS is 0.952 µM; in the test on SK-MEL-2 melanoma, 1.13 µM; in the test on SNB-19 CNS, 0.458 µM; in the test on T-47D breast, 0.232 µM. Further, the TGI is 2.11 µM in the test on CAKI-1 renal; 2.39 µM in the test on EKVX NSCLC; 1.61 µM in the test on HCC-2998 colon; 0.433 µM with HCT-116 colon; above 50 µM in the test on NCI/ADR-RES ovarian; 2.03 µM in the test on OVCAR-5 ovarian. The TGI with SF-539 CNS is 2.47 µM; with SK-MEL-2 melanoma, 18.1 µM; in the test on SNB-19 CNS it was above 50 µM; in the test on T-47D breast, above 50 µM.

Consider `CN(/N=C/c1cccc2cccnc12)c1ccc([N+](=O)[O-])cc1[N+](=O)[O-]`, for which the TGI was 64.9 µM in the test with CAKI-1 renal; above 95 µM in the test on EKVX NSCLC; above 100 µM in the test on HCC-2998 colon; above 82.1 µM with HCT-116 colon; above 100 µM with NCI/ADR-RES ovarian; above 89.6 µM with OVCAR-5 ovarian. Besides, the TGI was 32.1 µM in the test with SF-539 CNS, 47.4 µM with SK-MEL-2 melanoma, 40.2 µM in the test with SNB-19 CNS and 85.4 µM with T-47D breast.

The values above are taken from PubChem BioAssay (NCI).
